Legend:
human SGLT2 = molecular target: T1, human SGLT2 (Homo sapiens, UniProt P31639); test: Assay for SGLT2 inhibition (14C-AMG uptake in CHOK1 cells expressing human SGLT2); format: cell-based; conditions: CHOK1 cells expressing human SGLT2; 14C-AMG uptake 0.5 mM, 2 hours at 37° C.; read-out: IC50
T1 construct: expressed in transfected cells; host or cells: CHOK1 (CHO-K1) cells, kept under Geneticin selection
T1 sequence (P31639 1-672): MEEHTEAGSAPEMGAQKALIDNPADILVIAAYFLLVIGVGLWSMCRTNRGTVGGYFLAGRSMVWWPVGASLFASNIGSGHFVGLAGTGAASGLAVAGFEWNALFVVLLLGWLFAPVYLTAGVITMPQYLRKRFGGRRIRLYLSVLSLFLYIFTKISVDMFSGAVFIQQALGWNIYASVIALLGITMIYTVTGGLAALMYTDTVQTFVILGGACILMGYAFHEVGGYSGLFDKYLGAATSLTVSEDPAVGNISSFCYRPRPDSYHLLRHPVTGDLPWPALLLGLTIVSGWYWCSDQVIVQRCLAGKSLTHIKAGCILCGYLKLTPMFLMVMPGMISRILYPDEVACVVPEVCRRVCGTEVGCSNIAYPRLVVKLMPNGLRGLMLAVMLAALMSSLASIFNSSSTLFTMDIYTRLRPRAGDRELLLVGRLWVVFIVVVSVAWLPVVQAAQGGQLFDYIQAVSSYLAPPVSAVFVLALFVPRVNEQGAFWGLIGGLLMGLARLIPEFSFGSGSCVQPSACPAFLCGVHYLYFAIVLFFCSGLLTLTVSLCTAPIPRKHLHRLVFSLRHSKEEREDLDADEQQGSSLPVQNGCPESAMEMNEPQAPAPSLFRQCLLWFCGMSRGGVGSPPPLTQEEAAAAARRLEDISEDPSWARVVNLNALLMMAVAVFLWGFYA
Procedure: 1. Assay for SGLT2 Inhibition
Compounds described in the above examples were used for the SGLT2 inhibition assay.
CHOK1 cells expressing human SGLT2 were seeded in 24-well plates at a density of 400,000 cells/well in F-12 nutrient mixture (Ham's F-12) containing 10% fetal bovine serum, 400 μg/ml Geneticin, 50 units/ml sodium penicillin G (Gibco-BRL) and 50 μg/ml streptomycin sulfate. […] Test compounds were dissolved in DMSO. The final concentration of DMSO was 0.5%. The transport reaction was initiated by addition of 50 μl [^14C]-methyl-α-D-glucopyranoside (^14C-AMG) solution (final concentration, 0.5 mM). After incubation for 2 hours at 37° C., the uptake was stopped by aspiration of the incubation mixture, the cells were washed three times with ice-cold PBS. Then, cells were solubilized with 0.3 N NaOH and aliquots were taken for determination of radioactivity by a liquid scintillation counter. Nonspecific AMG uptake was defined as that which occurred in the presence of 100 μM of phlorizin, a specific inhibitor of sodium-dependent glucose cotransporter. Specific uptake was normalized for the protein concentrations measured by the method of Bradford.

Sprague-Dawley (SD) rats = test: Urinary glucose excretion test in rats; format: in vivo, rat; conditions: male SD rats, 30 mg/kg oral gavage, urine collected for 24 hours; daily amount of glucose excreted per individual
Procedure: 2. Urinary Glucose Excretion Test in Rats Test Compounds:
Compounds described in the above examples were used for the urinary glucose excretion test in rats.
6-week-old male Sprague-Dawley (SD) rats were housed in individual metabolic cages with free access to food and water from 2 days prior to the experiment. On the morning of the experiment, rats were administered vehicle (0.2% carboxymethyl cellulose solution containing 0.2% Tween80) or test compounds (30 mg/kg) by oral gavage at a volume of 10 ml/kg. Then, urine of the rat was collected for 24 hours, and the urine volume was measured. Subsequently, the glucose concentration in urine was quantified using the enzymatic assay kit and the daily amount of glucose excreted in urine per individual was calculated.

Row | IC50 (human SGLT2) | melting point | Compound | Urinary glucose (Sprague-Dawley (SD) rats)
1 | 3.6 nM | – | COc1ccc(-c2ccc(Cc3cc([C@@H]4O[C@H](CO)[C@@H](O)[C@H](O)[C@H]4O)ccc3Cl)s2)cn1 [Example 169, 1-(β-D-glucopyranosyl)-4-chloro-3-(5-(6-methoxy-3-pyridyl)-2-thienylmethyl)benzene] | B (2000 mg>B≧1000 mg)
2 | 3.5 nM | – | COc1cccc(-c2ccc(Cc3cc([C@@H]4O[C@H](CO)[C@@H](O)[C@H](O)[C@H]4O)ccc3Cl)s2)n1 [Example 170, 1-(β-D-glucopyranosyl)-4-chloro-3-(5-(6-methoxy-2-pyridyl)-2-thienylmethyl)benzene] | B (2000 mg>B≧1000 mg)
3 | 6.7 nM | – | Cc1ccc([C@@H]2O[C@H](CO)[C@@H](O)[C@H](O)[C@H]2O)cc1Cc1ccc(-c2ccc(F)c(F)c2)s1 [Example 177, 1-(β-D-glucopyranosyl)-3-(5-(3,4-difluorophenyl)-2-thienylmethyl)-4-methylbenzene] | A (A≧2000 mg)
4 | 5.1 nM | – | OC[C@H]1O[C@@H](c2ccc(Cl)c(Cc3ccc(-c4cccc(C(F)F)c4)s3)c2)[C@H](O)[C@@H](O)[C@@H]1O [Example 178, 1-(β-D-glucopyranosyl)-4-chloro-3-(5-(3-difluoromethylphenyl)-2-thienylmethyl)benzene] | B (2000 mg>B≧1000 mg)
5 | 2.4 nM | 127 to 129 °C | N#Cc1cccc(-c2ccc(Cc3cc([C@@H]4O[C@H](CO)[C@@H](O)[C@H](O)[C@H]4O)ccc3F)s2)c1 [Example 189, 1-(β-D-glucopyranosyl)-4-fluoro-3-(5-(3-cyanophenyl)-2-thienylmethyl)benzene] | B (2000 mg>B≧1000 mg)
6 | 3.1 nM | 161.5 to 162 °C | OC[C@H]1O[C@@H](c2ccc(F)c(Cc3ccc(-c4nccs4)s3)c2)[C@H](O)[C@@H](O)[C@@H]1O [Example 190, 1-(β-D-glucopyranosyl)-4-fluoro-3-(5-(2-thiazolyl)-2-thienylmethyl)benzene] | –
7 | 2.6 nM | – | OC[C@H]1O[C@@H](c2ccc(Cl)c(Cc3ccc(-c4ccc(F)cn4)s3)c2)[C@H](O)[C@@H](O)[C@@H]1O [Example 194, 1-(β-D-glucopyranosyl)-4-chloro-3-(5-(5-fluoropyridin-2-yl)-2-thienylmethyl)benzene] | A (A≧2000 mg)

Reference: US8222219B2, “Glucopyranoside compound” (Mitsubishi Tanabe Pharma Corporation, priority 2003, dated 2012)
